For one experiment, the target named is BaF3 PIM2 cells (Homo sapiens, UniProt Q9P1W9). Put plainly: BaF3 PIM2 cell proliferation (Cell Titer Glo). The format is cell-based. The conditions noted are these: incubated overnight; read-out: Prolif BaF3_PIM2 (IC50). Here is the method: (§1) BaF3 parental line was obtained from the DSMZ repository. BaF3 lines transfected with PIM1 or PIM2 were generated. Mouse IL-3 was purchased from R&D Systems. G418 was purchased from Clontech. Media for BaF3 parental line contained RPMI, 10% FBS, 2 mM L-Glutamine, 2 ng/mL mIL-3. Media for BaF3 PIM1 & 2 lines contained RPMI, 10% FBS, 2 mM L-Glutamine, […]. Media for MM1.S line contained RPMI, 10% FBS, 2 mM L-Glutamine.
(§2) BaF3 parental cells, BaF3 PIM1 cells, BaF3 PIM2 cells, and MM1.S cells were seeded at 2 k/well, 5 k/well, 5 k/well, and 10 k/well respectively, in a 384-well plate, at 45 μL/well. Test compound was added at 5 μL/well. BaF3 cells (parental and transfected) were incubated overnight, while MM1.S cells were incubated for 72 hours at 37° C., 5% CO2. Cell Titer Glo Reagent (Promega) was added at 50 μL/well, the plates were incubated for 30 minutes, and their luminescence read on an HT Analyst. IC50/EC50 values for the test compound were calculated.

A further experiment relates to MM1.S cells. Put plainly: MM1.S cell proliferation, 72 hours (Cell Titer Glo). In kind it is cell-based. The following applies: Homo sapiens, 72 hours, read-out: Prolif MM1S ATP (EC50). On the procedure: as §1, §2
(Cellular ATP, detected with luciferase, serves as a proxy for viable cell number.)

The target of the next experiment is BaF3 PIM1 cells (Homo sapiens, UniProt P11309). Put plainly: BaF3 PIM1 cell proliferation (Cell Titer Glo). The following applies: incubated overnight; read-out: Prolif BaF3_PIM1 (IC50). The format is cell-based. Here is the method:
as §1, §2

Another experiment deals with T1, PIM1 (Homo sapiens, UniProt P11309).
T1 construct: made in house
Put plainly: Pim-1 kinase enzymatic assay (Caliper LC3000, FAM-Pimtide substrate). The format is biochemical. The following applies: 20 pM PIM1, 10 μM ATP, 90 minutes; read-out: PIM1 LC3K (Ki). Here is the method: (§3) Reaction Buffer contained 10 mM HEPES, pH 7.2, 10 mM MgCl2, 0.01% Tween 20, 2 mM DTT.
(§4) PIM reactions were carried out in a final volume of 10 μL per well in a 384-well plate. […] The separation of product and substrate was optimized by choosing voltages and pressure using Caliper's Optimizer software (Hopkinton, Mass.). The separation conditions used a downstream voltage of −500V, an upstream voltage of −2150V, and a screening pressure of −1.2 psi. […] Substrate conversion was calculated from the electrophoregram using HTS Well Analyzer software (Caliper Life Sciences, Hopkinton, Mass.). Ki values for the test compound were calculated.

A further experiment concerns the target T2, PIM2 (Homo sapiens, UniProt Q9P1W9).
T2 construct: made in house
The experiment can be described thus: Pim-2 kinase enzymatic assay (Caliper LC3000, FAM-Pimtide substrate). The format is biochemical. The following applies: 50 pM PIM2, 10 μM ATP, 90 minutes; read-out: PIM2 LC3K (Ki). Here is the method: as §3, §4

A further experiment concerns the target T3, PIM3 (Homo sapiens, UniProt Q86V86).
T3 construct: made in house
The experiment can be described thus: Pim-3 kinase enzymatic assay (Caliper LC3000, FAM-Pimtide substrate). In kind it is biochemical. The conditions noted are these: 55 pM PIM3, 10 μM ATP, 90 minutes; read-out: PIM3 LC3K (Ki). Here is the method: as §3, §4

Experimental findings from patent US8435976B2, “4-substituted pyridin-3-yl-carboxamide compounds and methods of use” (F. Hoffmann-La Roche, priority 2009, dated 2013) are described below.

T1 sequence (P11309 whole entry): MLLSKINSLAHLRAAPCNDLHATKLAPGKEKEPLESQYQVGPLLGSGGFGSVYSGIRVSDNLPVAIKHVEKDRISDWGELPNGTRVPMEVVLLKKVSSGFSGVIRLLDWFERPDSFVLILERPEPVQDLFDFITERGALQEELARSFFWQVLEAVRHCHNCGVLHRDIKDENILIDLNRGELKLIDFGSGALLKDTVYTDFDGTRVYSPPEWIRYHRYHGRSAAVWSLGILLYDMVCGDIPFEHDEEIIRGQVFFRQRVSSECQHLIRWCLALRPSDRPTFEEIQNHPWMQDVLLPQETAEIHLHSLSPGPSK
Sequence of BaF3 PIM1 cells (P11309 whole entry, change not shown): as the sequence (P11309 whole entry) above
T2 sequence (Q9P1W9 whole entry): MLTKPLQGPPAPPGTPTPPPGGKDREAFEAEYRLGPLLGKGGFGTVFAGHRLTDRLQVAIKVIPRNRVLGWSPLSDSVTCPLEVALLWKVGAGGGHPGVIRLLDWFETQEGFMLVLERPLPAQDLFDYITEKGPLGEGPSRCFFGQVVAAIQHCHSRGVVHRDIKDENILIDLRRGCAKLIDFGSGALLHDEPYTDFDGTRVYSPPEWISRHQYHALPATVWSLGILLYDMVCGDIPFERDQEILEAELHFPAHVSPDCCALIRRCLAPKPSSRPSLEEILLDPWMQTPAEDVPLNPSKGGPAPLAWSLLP
Sequence of BaF3 PIM2 cells (Q9P1W9 whole entry, change not shown): as the sequence (Q9P1W9 whole entry) above

Usually EC50 stands for the concentration that produces a half-maximal response. For orientation: Ki means a measure of affinity in units of concentration, obtained from inhibition or displacement. As to `Cc1nc(C(=O)Nc2cnccc2N2CCC[C@H](N)C2)c(N)s1` [Example 8, (S)-5-amino-N-(4-(3-aminopiperidin-1-yl)pyridin-3-yl)-2-methylthiazole-4-carboxamide], the GI50 at BaF3 PIM2 cells was greater than 20000 nM; at BaF3 PIM1 cells it was 713 nM. Further, the EC50 in the experiment on MM1.S cells was greater than 20000 nM. Further, the values for the inhibitory constant (Ki) on PIM1, at PIM2 and at PIM3 were 3.47 nM, 16.3 nM and 9.53 nM, respectively.
Take `Nc1sc(-c2cc[nH]n2)nc1C(=O)Nc1cnccc1N1CCC[C@H](N)C1` [Example 51, (S)-5-amino-N-(4-(3-aminopiperidin-1-yl)pyridin-3-yl)-2-(1H-pyrazol-3-yl)thiazole-4-carboxamide]: the GI50 on BaF3 PIM2 cells is greater than 20000 nM; at BaF3 PIM1 cells, 197 nM. For the same molecule, in the experiment with MM1.S cells, the half-maximal effective concentration (EC50) worked out at 156 nM. The Ki came out at 0.0812 nM on PIM1, 0.265 nM on PIM2 and 0.041 nM on PIM3.
Take `Nc1sc(C2CCCC2)nc1C(=O)Nc1cnccc1N1CCC[C@H](N)C1` [Example 60, (S)-5-amino-N-(4-(3-aminopiperidin-1-yl)pyridin-3-yl)-2-cyclopentylthiazole-4-carboxamide]: the GI50 turned out to be 17600 nM on BaF3 PIM2 cells and 465 nM at BaF3 PIM1 cells. Further, in the experiment on MM1.S cells, the EC50 came to 1400 nM. The inhibitory constant (Ki) amounted to 1.07 nM on PIM1, 1.16 nM on PIM2 and 0.279 nM at PIM3.
In the case of `Nc1sc(-c2cn[nH]c2)nc1C(=O)Nc1cnccc1N1CCC[C@H](N)C1` [Example 56, (S)-5-amino-N-(4-(3-aminopiperidin-1-yl)pyridin-3-yl)-2-(1H-pyrazol-4-yl)thiazole-4-carboxamide], the GI50 is greater than 20000 nM on BaF3 PIM2 cells and 1500 nM at BaF3 PIM1 cells. In addition, in the experiment on MM1.S cells, the EC50 was 953 nM. The Ki on PIM1 came to 0.115 nM; on PIM2 it was 0.666 nM; on PIM3 it was 0.08 nM.
As for `Nc1sc(-c2cc(F)ccc2F)nc1C(=O)Nc1cnccc1N1CCC[C@H](N)C1` [Example 41, (S)-5-amino-N-(4-(3-aminopiperidin-1-yl)pyridin-3-yl)-2-(2,5-difluorophenyl)thiazole-4-carboxamide], the GI50 at BaF3 PIM2 cells came to 3900 nM; on BaF3 PIM1 cells, 69 nM. In addition, the EC50 in the experiment on MM1.S cells was determined as 2000 nM. For the same molecule, the figures for the inhibitory constant (Ki) on PIM1, at PIM2 and on PIM3 were 0.049 nM, 0.208 nM and 0.022 nM, respectively.
`Cc1cccc(C)c1-c1nc(C(=O)Nc2cnccc2N2CCC[C@H](N)C2)c(N)s1` [Example 54, (S)-5-amino-N-(4-(3-aminopiperidin-1-yl)pyridin-3-yl)-2-(2,6-dimethylphenyl)thiazole-4-carboxamide]: the figures for the GI50 on BaF3 PIM2 cells and on BaF3 PIM1 cells were greater than 20000 nM and 7800 nM, respectively. Further, in the experiment with MM1.S cells, the concentration giving a half-maximal response (EC50) was determined as 15700 nM. For the same molecule, the figures for the Ki on PIM1, on PIM2 and on PIM3 were 26.9 nM, 72.3 nM and 23.1 nM, respectively.
With `Nc1sc(-c2ccccc2Cl)nc1C(=O)Nc1cnccc1N1CCC[C@H](N)C1` [Example 2, (S)-5-amino-N-(4-(3-aminopiperidin-1-yl)pyridin-3-yl)-2-(2-chlorophenyl)thiazole-4-carboxamide], the figures for the GI50 at BaF3 PIM2 cells and at BaF3 PIM1 cells were 2000 nM and 67.2 nM, respectively. Besides, in the experiment with MM1.S cells, the EC50 came to 218 nM. Also, the Ki on PIM1 is 0.0355 nM; at PIM2, 0.126 nM; on PIM3, 0.0205 nM.
As to `Nc1sc(-c2cccnc2)nc1C(=O)Nc1cnccc1N1CCC[C@H](N)C1` [Example 11, (S)-5-amino-N-(4-(3-aminopiperidin-1-yl)pyridin-3-yl)-2-(pyridin-3-yl)thiazole-4-carboxamide], the GI50 on BaF3 PIM2 cells stood at 13200 nM; on BaF3 PIM1 cells, 607 nM. Moreover, the EC50 with MM1.S cells came to 9200 nM. Besides, the results for the Ki on PIM1, at PIM2 and at PIM3 were 0.502 nM, 0.885 nM and 0.166 nM, respectively.
On to `CN(C)Cc1nc(C(=O)Nc2cnccc2N2CCC[C@H](N)C2)c(N)s1` [Example 21, (S)-5-amino-N-(4-(3-aminopiperidin-1-yl)pyridin-3-yl)-2-((dimethylamino)methyl)thiazole-4-carboxamide], for which the GI50 on BaF3 PIM2 cells and at BaF3 PIM1 cells was greater than 20000 nM throughout. Moreover, the EC50 in the experiment on MM1.S cells was greater than 20000 nM. Besides, the figures for the inhibitory constant (Ki) on PIM1, on PIM2 and on PIM3 were 420 nM, 242 nM and 138 nM, respectively.
Turning to `Nc1sc(-c2ccc3cccnc3c2)nc1C(=O)Nc1cnccc1N1CCC[C@H](N)C1` [Example 44, (S)-5-amino-N-(4-(3-aminopiperidin-1-yl)pyridin-3-yl)-2-(quinolin-7-yl)thiazole-4-carboxamide], the GI50 was found to be 1900 nM on BaF3 PIM2 cells and 38.1 nM at BaF3 PIM1 cells. In addition, the EC50 in the experiment on MM1.S cells is 191 nM. In addition, the figures for the inhibition constant (Ki) at PIM1, on PIM2 and at PIM3 were 0.032 nM, 0.512 nM and 0.113 nM, respectively.
As to `Nc1sc(-c2ncccc2F)nc1C(=O)Nc1cnccc1N1CCC[C@H](N)C1` [Example 66, (S)-5-amino-N-(4-(3-aminopiperidin-1-yl)pyridin-3-yl)-2-(3-fluoropyridin-2-yl)thiazole-4-carboxamide], the GI50 on BaF3 PIM2 cells worked out at 2100 nM; at BaF3 PIM1 cells, 40.6 nM. Further, the EC50 in the experiment with MM1.S cells was 2800 nM. Moreover, the Ki amounted to 0.05 nM at PIM1, 0.0894 nM at PIM2 and 0.022 nM on PIM3.
With `Nc1sc(C2CCCNC2)nc1C(=O)Nc1cnccc1N1CCCC(N)C1` (stereo not drawn) [Example 65, 5-amino-N-(4-(3-aminopiperidin-1-yl)pyridin-3-yl)-2-(piperidin-3-yl)thiazole-4-carboxamide], the GI50 on BaF3 PIM2 cells and on BaF3 PIM1 cells was greater than 20000 nM in each case. Further, in the experiment on MM1.S cells, the EC50 is greater than 20000 nM. Also, the Ki on PIM1 was found to be 94.9 nM; on PIM2 it was 97.1 nM; on PIM3 it was 47.3 nM.
Turning to `Cc1ccccc1-c1nc(C(=O)Nc2cnccc2N2CCC[C@H](N)C2)c(N)s1` [Example 40, (S)-5-amino-N-(4-(3-aminopiperidin-1-yl)pyridin-3-yl)-2-o-tolylthiazole-4-carboxamide], the GI50 on BaF3 PIM2 cells is 6500 nM; at BaF3 PIM1 cells it was 164 nM. Moreover, the EC50 in the experiment with MM1.S cells was 2500 nM. Further, the inhibitory constant (Ki) at PIM1 came out at 0.129 nM; on PIM2, 0.725 nM; on PIM3 it was 0.037 nM.
With `Nc1sc(-c2c(F)cccc2F)nc1C(=O)Nc1cnccc1N1C[C@@H](N)C[C@@H](F)C1` [Example 63, 5-amino-N-(4-((3S,5R)-3-amino-5-fluoropiperidin-1-yl)pyridin-3-yl)-2-(2,6-difluorophenyl)thiazole-4-carboxamide], the GI50 at BaF3 PIM2 cells was found to be 12900 nM; on BaF3 PIM1 cells, 3400 nM. In addition, the EC50 in the experiment on MM1.S cells was 19900 nM. Besides, the Ki was found to be 0.437 nM on PIM1, 3.86 nM at PIM2 and 0.246 nM at PIM3.
For the molecule `CCCOc1ccc(F)c(-c2nc(C(=O)Nc3cnccc3N3CCC[C@H](N)C3)c(N)s2)c1F` [Example 27, (S)-5-amino-N-(4-(3-aminopiperidin-1-yl)pyridin-3-yl)-2-(3-propyloxy-2,6-difluorophenyl)thiazole-4-carboxamide], the GI50 at BaF3 PIM2 cells was found to be 3900 nM; at BaF3 PIM1 cells, 75.7 nM. The concentration for a half-maximal effect (EC50) with MM1.S cells came to 558 nM. In addition, the Ki on PIM1 stood at 0.04 nM; at PIM2, 0.248 nM; at PIM3, 0.05 nM.
As for `Nc1sc(-c2ccccc2OC(F)(F)F)nc1C(=O)Nc1cnccc1N1CCC[C@H](N)C1` [Example 15], the results for the GI50 on BaF3 PIM2 cells and at BaF3 PIM1 cells were 3300 nM and 945 nM, respectively. Besides, in the experiment with MM1.S cells, the half-maximal effective concentration (EC50) was 4400 nM. The results for the Ki at PIM1, on PIM2 and on PIM3 were 1.93 nM, 16.4 nM and 1.89 nM, respectively.
As for `NC(=O)c1cccc(-c2nc(C(=O)Nc3cnccc3N3CCC[C@H](N)C3)c(N)s2)c1` [Example 22, (S)-5-amino-N-(4-(3-aminopiperidin-1-yl)pyridin-3-yl)-2-(3-carbamoylphenyl)thiazole-4-carboxamide], the values for the GI50 at BaF3 PIM2 cells and at BaF3 PIM1 cells were greater than 20000 nM and 520 nM, respectively. In the experiment with MM1.S cells, the EC50 stood at 4700 nM. Besides, the Ki came out at 0.054 nM on PIM1, 0.495 nM at PIM2 and 0.052 nM on PIM3.
Regarding `COc1ccccc1-c1nc(C(=O)Nc2cnccc2N2CCC[C@H](N)C2)c(N)s1` [Example 39, (S)-5-amino-N-(4-(3-aminopiperidin-1-yl)pyridin-3-yl)-2-(2-methoxyphenyl)thiazole-4-carboxamide], the GI50 was 5100 nM at BaF3 PIM2 cells and 375 nM on BaF3 PIM1 cells. Further, the EC50 with MM1.S cells was 3200 nM. Besides, the inhibition constant Ki at PIM1 worked out at 0.306 nM; on PIM2, 1.69 nM; on PIM3, 0.143 nM.
